# Read-outs that look alike come from different tables or passages of the source.
# Experiments:
# [1] = system: PGE2 secreted by synoviocyte; experiment: Content of PGE2 in culture supernatant of synoviocyte of RA model rats given test compound; format: in vivo; details: rat RA model, dose 30 mg/kg.2d; normal control 8.34 ± 1.29, NaCl 32.44 ± 10.32
# Outline: (§1)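 Test article is given to RA rats at 30 mg/kg.2d, and synoviocytes are isolated and cultured. Secreted TNF-α and PGE2 in the culture medium are measured by a shared protocol, while IL-1β release is measured by a different protocol. Comparison groups are saline (NaCl) and normal control rats.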
# [2] = system: cancer stem cells; experiment: Survival rate of cancer stem cells after test compound is added (flow cytometry, Annexin V-FITC/PI, clinical specimen); format: cell-based, patient; details: Homo sapiens, 18 h
# Outline: (§2)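 Survival was determined in clinical specimens after an 18 h compound treatment, using Annexin V-FITC/PI apoptosis staining and flow cytometry.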
# [3] = system: normal cells; experiment: Survival rate of normal cells after test compound is added (flow cytometry, Annexin V-FITC/PI); format: cell-based; details: 18 h
# Outline: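 Steps: density-gradient isolation of mononuclear cells from fresh or cryopreserved clinical samples; 18-hour compound exposure at 1×10^6 cells/mL; staining for stem-cell surface markers, then Annexin V-FITC and PI; flow cytometric apoptosis analysis.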
# [4] = system: IL-1β secreted by synoviocyte; experiment: Content of IL-1β in culture supernatant of synoviocyte of RA model rats given test compound; format: in vivo; details: rat RA model, dose 30 mg/kg.2d; normal control 0.16 ± 0.034, NaCl 0.49 ± 0.136
# Outline: as §1
# [5] = system: cancer cells; experiment: Survival rate of cancer cells after test compound is added (flow cytometry, Annexin V-FITC/PI, clinical specimen); format: cell-based, patient; details: Homo sapiens, 18 h, read-out: Survival rate (%) All cells (Stem cells and ordinary cells)
# Outline: as §2
# [6] = Head and neck squamous cell carcinomas
# [7] = read-out: Survival rate (%) All cells (Stem cells and ordinary cells)
# [8] = read-out: Survival rate (%) Stem cells
smiles,measurement,setting,value
C=C1C(=O)O[C@@H]2[C@@H]3[C@@H](CCC34CC4)C3(CC[C@@H]12)CC3 [Compound 26],Content of PGE2 in culture supernatant of synoviocyte (x ± s),[1],25.61 ± 5.41 ng/mL
same,viability at 10 µM,[2]; AML,86%
same,viability at 20 µM,[2]; AML,73%
same,viability at 10 µM,[2]; Brain glioma,84%
same,viability at 20 µM,[2]; Brain glioma,76%
same,viability at 10 µM,[2]; Brain tumor,84%
same,viability at 20 µM,[2]; Brain tumor,73%
same,viability at 10 µM,[2]; Breast cancer,85%
same,viability at 20 µM,[2]; Breast cancer,74%
same,viability at 10 µM,[2]; CLL,84%
same,viability at 20 µM,[2]; CLL,74%
same,viability at 10 µM,[2]; CML,88%
same,viability at 20 µM,[2]; CML,76%
same,viability at 10 µM,[2]; Children hepatoblastoma,85%
same,viability at 20 µM,[2]; Children hepatoblastoma,79%
same,viability at 10 µM,[2]; Colon adenocarcinoma,86%
same,viability at 20 µM,[2]; Colon adenocarcinoma,81%
same,viability at 10 µM,[2]; Colorectal cancer,79%
same,viability at 20 µM,[2]; Colorectal cancer,72%
same,viability at 10 µM,[2]; Gastric cancer,83%
same,viability at 20 µM,[2]; Gastric cancer,77%
same,viability at 10 µM,[2]; Gastrointestinal tumor,87%
same,viability at 20 µM,[2]; Gastrointestinal tumor,82%
same,viability at 10 µM,[2]; Glioma,87%
same,viability at 20 µM,[2]; Glioma,76%
same,viability at 10 µM,[2]; [6],84%
same,viability at 20 µM,[2]; [6],78%
same,viability at 10 µM,[2]; Laryngeal cancer,80%
same,viability at 20 µM,[2]; Laryngeal cancer,75%
same,viability at 10 µM,[2]; Liver cancer,82%
same,viability at 20 µM,[2]; Liver cancer,79%
same,viability at 10 µM,[2]; Lung adenocarcinoma,85%
same,viability at 20 µM,[2]; Lung adenocarcinoma,82%
same,viability at 10 µM,[2]; Lung cancer,82%
same,viability at 20 µM,[2]; Lung cancer,78%
same,viability at 10 µM,[2]; Malignant melanoma,82%
same,viability at 20 µM,[2]; Malignant melanoma,76%
same,viability at 10 µM,[2]; Nasopharynx cancer,85%
same,viability at 20 µM,[2]; Nasopharynx cancer,74%
same,viability at 10 µM,[2]; Ovarian cancer,86%
same,viability at 20 µM,[2]; Ovarian cancer,75%
same,viability at 10 µM,[2]; Pancreatic cancer,86%
same,viability at 20 µM,[2]; Pancreatic cancer,77%
same,viability at 10 µM,[2]; Prostate cancer,86%
same,viability at 20 µM,[2]; Prostate cancer,77%
same,viability at 10 µM,[2]; Retinoblastoma,82%
same,viability at 20 µM,[2]; Retinoblastoma,74%
same,viability at 10 µM,[2]; Skin cancer,86%
same,viability at 20 µM,[2]; Skin cancer,75%
same,viability at 10 µM,[3]; [7],95%
same,viability at 10 µM,[3]; [8],94%
same,viability at 20 µM,[3]; [7],94%
same,viability at 20 µM,[3]; [8],93%
same,Content of IL-1β in culture supernatant of synoviocyte (x ± s),[4],0.42 ± 0.052 ng/mL
same,viability at 10 µM,[5]; AML,93%
same,viability at 20 µM,[5]; AML,85%
same,viability at 10 µM,[5]; Brain glioma,88%
same,viability at 20 µM,[5]; Brain glioma,85%
same,viability at 10 µM,[5]; Brain tumor,89%
same,viability at 20 µM,[5]; Brain tumor,85%
same,viability at 10 µM,[5]; Breast cancer,89%
same,viability at 20 µM,[5]; Breast cancer,86%
same,viability at 10 µM,[5]; CLL,93%
same,viability at 20 µM,[5]; CLL,85%
same,viability at 10 µM,[5]; CML,92%
same,viability at 20 µM,[5]; CML,79%
same,viability at 10 µM,[5]; Children hepatoblastoma,93%
same,viability at 20 µM,[5]; Children hepatoblastoma,86%
same,viability at 10 µM,[5]; Colon adenocarcinoma,91%
same,viability at 20 µM,[5]; Colon adenocarcinoma,89%
same,viability at 10 µM,[5]; Colorectal cancer,87%
same,viability at 20 µM,[5]; Colorectal cancer,81%
same,viability at 10 µM,[5]; Gastric cancer,88%
same,viability at 20 µM,[5]; Gastric cancer,84%
same,viability at 10 µM,[5]; Gastrointestinal tumor,93%
same,viability at 20 µM,[5]; Gastrointestinal tumor,88%
same,viability at 10 µM,[5]; Glioma,94%
same,viability at 20 µM,[5]; Glioma,87%
same,viability at 10 µM,[5]; [6],91%
same,viability at 20 µM,[5]; [6],88%
same,viability at 10 µM,[5]; Laryngeal cancer,88%
same,viability at 20 µM,[5]; Laryngeal cancer,82%
same,viability at 10 µM,[5]; Liver cancer,89%
same,viability at 20 µM,[5]; Liver cancer,87%
same,viability at 10 µM,[5]; Lung adenocarcinoma,91%
same,viability at 20 µM,[5]; Lung adenocarcinoma,87%
same,viability at 10 µM,[5]; Lung cancer,88%
same,viability at 20 µM,[5]; Lung cancer,84%
same,viability at 10 µM,[5]; Malignant melanoma,88%
same,viability at 20 µM,[5]; Malignant melanoma,86%
same,viability at 10 µM,[5]; Nasopharynx cancer,94%
same,viability at 20 µM,[5]; Nasopharynx cancer,81%
same,viability at 10 µM,[5]; Ovarian cancer,91%
same,viability at 20 µM,[5]; Ovarian cancer,84%
same,viability at 10 µM,[5]; Pancreatic cancer,90%
same,viability at 20 µM,[5]; Pancreatic cancer,86%
same,viability at 10 µM,[5]; Prostate cancer,92%
same,viability at 20 µM,[5]; Prostate cancer,89%
same,viability at 10 µM,[5]; Retinoblastoma,91%
same,viability at 20 µM,[5]; Retinoblastoma,85%
same,viability at 10 µM,[5]; Skin cancer,94%
same,viability at 20 µM,[5]; Skin cancer,87%

# Source: patent US10463644B2, “Uses of sesquiterpene lactone compounds and their derivatives in drugs preparation” (ACCENDATECH, priority 2013, dated 2019)
